The values that follow come from patent US20150344466A1 (SUMITOMO CHEMICAL COMPANY, LIMITED, priority 2013, published 2015).

The experiment deals with Culex pipiens pallens. Kind of experiment: Knockdown spray test on adult Culex pipiens pallens (Test Example 4). The experiment is classed as in vivo. To be noted: topical, 0.25 h, active ingredient 0.1% w/v, 0.5 ml sprayed, within 15 minutes, read-out: knockdown rate of the test insects within 15 minutes. On the procedure: Ten adult Culex pipiens pallens were released in a polyethylene cup (bottom diameter: 10.6 cm), and the cup was covered with a 16-mesh nylon gauze. The polyethylene cup was placed on the bottom of a test chamber (bottom: 46 cm×46 cm, height: 70 cm). From a height of 30 cm above the upper surface of the polyethylene cup, 0.5 ml of the test drug solution was sprayed using a spray gun (a spraying pressure of 0.4 kg/cm^2). Immediately after spraying, the cup was taken out from the test chamber, and after 2 minutes, 5 minutes and 15 minutes, the number of knocked-down insects was counted to obtain a knockdown rate. The knockdown rate was calculated by the following equation.
Knockdown Rate (%)=(Number of Knocked-down Insects/Number of Tested Insects)×100
On to `O=C(NCC1COCO1)c1cc(COCc2ccccc2)on1` (stereo not drawn) [(35), N-[4-(1,3-dioxolyl)methyl]-5-benzyloxymethylisoxazole-3-carboxamide], for which the pest or weed control at 0.1 % strength is not below 80%. The result for `O=C(NC1CSC1)c1cc(COCc2ccccc2)on1` [(40), N-(thietan-3-yl)-5-benzyloxymethylisoxazole-3-carboxamide] reads not below 80%. Next, `O=C(NCC1CCOC1)c1ncc(COc2ccccc2)s1` (stereo not drawn) [(47), N-(tetrahydrofuran-3-ylmethyl)-5-phenoxymethythiazole-2-carboxamide]: not below 80%; `O=C(NCC1CCOC1)c1ncc(COCc2ccccc2)s1` (stereo not drawn) [(48), N-(tetrahydrofuran-3-ylmethyl)-5-benzyloxymethythiazole-2-carboxamide]: not below 80%. Next, `O=C(NCC1CCOC1)c1cc(COCc2ccsc2)on1` (stereo not drawn) [(107), N-(tetrahydrofuran-3-ylmethyl)-5-(thiophen-3-ylmethoxymethyl)isoxazole-3-carboxamide]: not below 80%; `O=C(NCC1CCOCC1)c1cc(COCc2ccsc2)on1` [(108), N-(tetrahydropyran-4-ylmethyl)-5-(thiophen-3-ylmethoxymethyl)isoxazole-3-carboxamide]: not below 80%; `O=C(NCC1CCOC1)c1cc(COCc2ccc(Oc3ccccc3)cc2)on1` (stereo not drawn) [(117), N-(tetrahydrofuran-3-ylmethyl)-5-(4-phenoxybenzyloxymethyl) isoxazole-3-carboxamide]: not below 80%. Consider `Cc1c(COCc2cc(C(=O)NCC3CCOC3)no2)cccc1-c1ccccc1` (stereo not drawn) [(123), N-(tetrahydrofuran-3-ylmethyl)-5-(2-methyl-3-phenylbenzyloxymethyl)isoxazole-3-carboxamide], for which the pest or weed control at 0.1 % strength was not below 80%. Next, `CC(OCc1cc(C(=O)NCC2CCOC2)no1)c1ccccc1` (stereo not drawn) [(125), N-(tetrahydrofuran-3-ylmethyl)-5-[(1-phenylethyl)oxymethyl]isoxazole-3-carboxamide]: not below 80%; `O=C(NCC1CCOC1)c1cc(COCCCCc2ccccc2)on1` (stereo not drawn) [(135), N-(tetrahydrofuran-3-ylmethyl)-5-(4-phenylbutoxymethyl)isoxazole-3-carboxylic acid-3-carboxamide]: not below 80%; `O=C(NCC1CCOCC1)c1cc(COCCCCc2ccccc2)on1` [(136), N-(tetrahydropyran-4-ylmethyl)-5-(4-phenylbutoxymethyl)isoxazole-3-carboxamide]: not below 80%. The result for `O=C(NCC1CCOC1)c1cc(COCCCCCc2ccccc2)on1` (stereo not drawn) [(137), N-(tetrahydrofuran-3-ylmethyl)-5-(5-phenylpentyloxymethyl)isoxazole-3-carboxylic acid-3-carboxamide] reads not below 80%; that for `O=C(NCC1CCOCC1)c1cc(COCCCCCc2ccccc2)on1` [(138), N-(tetrahydropyran-4-ylmethyl)-5-(5-phenylpentyloymethyl)isoxazole-3-carboxamide], not below 80%. Next, `O=C(NCC1CCOC1)c1cc(CCCOc2ccccc2)on1` (stereo not drawn) [(145), N-(tetrahydrofuran-3-ylmethyl)-5-(3-phenoxypropyl)isoxazole-3-carboxamide]: not below 80%; `O=C(NCC1CCOC1)c1cc(CCCCCOc2ccccc2)on1` (stereo not drawn) [(147), N1-(tetrahydrofuran-3-ylmethyl)-5-(5-phenoxypentyl)isoxazole-3-carboxamide]: not below 80%. Regarding `O=C(NCC1CCOC1)c1cc(CCCCCCOc2ccccc2)on1` (stereo not drawn) [(148), N-(tetrahydrofuran-3-ylmethyl)-5-(6-phenoxyhexyl)isoxazole-3-carboxamide], the pest or weed control at 0.1 % strength was not below 80%.

On to `O=C(NCC1CCOC1)c1cc(Cc2cc3ccccc3s2)on1` (stereo not drawn) [(161), N-(tetrahydrofuran-3-ylmethyl)-5-(benzo[b]thiophen-2-ylmethy)isoxazole-3-carboxamide], for which the pest or weed control at 0.1 % strength is not below 80%. Next, `O=C(NCC1CCOC1)c1cc(Cc2ccc(Oc3ccccc3)cc2)on1` (stereo not drawn) [(162), N-(tetrahydrofuran-3-ylmethyl)-5-(4-phenoxybenzyl)isoxazole-3-carboxamide]: not below 80%; `O=C(NCC1CCOC1)c1cc(Cc2cccc(Oc3ccccc3)c2)on1` (stereo not drawn) [(163), N-(tetrahydrofuran-3-ylmethyl)-5-(3-phenoxybenzyl)isoxazole-3-carboxamide]: not below 80%; `O=C(NCC1CCOCC1)c1cc(COc2cccc(Cl)c2)on1` [(179), N-(tetrahydropyran-4-ylmethyl)-5-(3-chlorophenoxymethyl)isoxazole-3-carboxamide]: not below 80%. Next, `O=C(NCC1CCOCC1)c1cc(COc2ccc(F)cc2)on1` [(185)]: not below 80%; `O=C(NCC1CCOCC1)c1cc(COc2ccc(SC(F)(F)F)cc2)on1` [(193), N-(tetrahydropyran-4-ylmethyl)-5-(4-trifluoromethylthiophenoxymethyl)isoxazole-3-carboxamide]: not below 80%. Next, `O=C(NCC1CCOC1)c1cc(COc2cccc(SC(F)(F)F)c2)on1` (stereo not drawn) [(202), N-(tetrahydrofuran-3-ylmethyl)-5-(3-trifluoromethylthiophenoxymethyl)isoxazole-3-carboxamide]: not below 80%; `O=C(NCC1CCOCC1)c1cc(COc2cccc(SC(F)(F)F)c2)on1` [(203), N-(tetrahydropyran-4-ylmethyl)-5-(3-trifluoromethylthiophenoxymethyl)isoxazole-3-carboxamide]: not below 80%; `O=C(NCC1CCOC1)c1noc(COCc2ccc3ccccc3c2)c1CO` (stereo not drawn) [(209), N-(tetrahydrofuran-3-ylmethyl)-4-hydroxymethyl-5-(2-naphthylmethoxymethyl)isoxazole-3-carboxamide]: not below 80%. As to `COc1ccccc1COCc1cc(C(=O)NCC2CCOC2)no1` (stereo not drawn) [(227), N-(tetrahydrofuran-3-ylmethyl)-5-(2-methoxybenzyloxymethyl) isoxazole-3-carboxamide], the pest or weed control at 0.1 % strength was not below 80%.

For the compound `O=C(NCC1COCO1)c1cc(CCCc2ccc3ccccc3c2)on1` (stereo not drawn) [(229), N-(1,3-dioxolan-4-ylmethyl)-5-[3-(2-naphthyl)propyl]isoxazole-3-carboxamide], the pest or weed control at 0.1 % strength is not below 80%.

`O=C(NCC1CCOC1)c1cc(CCCc2ccc3c(c2)OC(F)(F)O3)on1` (stereo not drawn) [(231), N-(tetrahydrofuran-3-ylmethyl)-5-[5-(2,2-difluoro-1,3-benzodioxolanyl)propyl]isoxazole-3-carboxamide]: the pest or weed control at 0.1 % strength is not below 80%. Regarding `O=C(NCC1COCCO1)c1cc(CCCc2ccc3c(c2)OC(F)(F)O3)on1` (stereo not drawn) [(232), N-(1,4-dioxan-2-ylmethyl)-5-[3-(5-(2,2-difluoro-1,3-benzodioxolanyl))propyl]isoxazole-3-carboxamide], the pest or weed control at 0.1 % strength was not below 80%. Next, `O=C(NCC1COCCO1)c1cc(COCc2ccc3ccccc3c2)on1` (stereo not drawn) [(233), N-(1,4-dioxan-2-ylmethyl)-5-(2-naphthylmethoxymethyl)isoxazole-3-carboxamide]: not below 80%.
